These results are taken from patent US20240400572A1, “COMPOUNDS AND METHODS FOR TREATING CANCERS THAT ARE MGMT DEFICIENT REGARDLESS OF MMR STATUS” (Yale University, priority 2021, published 2024).

Counter-ions that a name gives are not always drawn. A value given as a limit tells only on which side of the number the result lay.

Assay in all cases: Anticancer activity towards LN229 human brain glioblastoma cells (nuclei count after 120 hours)
Common to all, as to format: cell-based
Holding throughout (details): LN-229, LN229 quad cells, 200 μM to 0.1 uM

In one experiment the test system is LN229 MGMT+ MMR+ cells. The protocol: (§1) Exemplary compounds were evaluated for activity against LN229 human brain glioblastoma cells. Experimental procedures and results are provided elsewhere herein.
(§2) LN229 quad cells were maintained in Dulbecco's Modified Eagle Medium (DMEM) supplemented with 10% fetal bovine serum. Cells were plated into sterile black with glass bottom 384-well plates (Cellvis) at a concentration of 1,000 cells/well (20 μL total volume) using a MultiDrop (Thermo Fisher). Then, assay plates were centrifuged at 300 rpm for 2 seconds and incubated overnight in a 37° C. 5% CO2 incubator. Compounds were prepared as 100 mM stocks in DMSO and stored protected from light at −20′C until use. Prior to compound addition, the stock solutions of compound were diluted two-fold serially in DMSO from 100 mM down to 0.05 mM in a 384-well Source plate. Vehicle control wells containing DMSO and positive control wells containing 10 mM bortezomib were also added to the Source plate. An aliquot in the amount of 40 nL of compound stock solution or DMSO vehicle was transferred from the source plate to the cell assay plate using an Echo Acoustic dispense (Beckman). Three replicate dilution curves of each compound were run on each assay plate. An aliquot in the amount of 120 nL of a 10 mM bortezomib solution was transferred to the positive control wells resulting in a final concentration of 60 μM. The final concentration of compounds ranged from 200 μM to 0.1 uM (12-point, 2-fold dilution dose response curve), and the final DMSO concentration was 0.2%.
(§3) Assay plates were centrifuged at 500 rpm for 2 seconds and incubated for 120 hours at 37° C. in a humidified 5% CO2 incubator. Following incubation, cells were fixed with 4% paraformaldehyde and stained with DAPI for nuclei visualization. The images were acquired on the InCell 2200 high content imager (GE, now […]), and quantified using InCell Analyzer image analysis software. Z prime factor, signal-to-background and coefficient of variation were calculated for each assays plate using mean and standard deviation values of the negative (vehicle) and positive (bortezomib) control wells to ensure assay robustness. Raw cell count data for test compounds was normalized to percent viability relative to the DMSO vehicle control. Data was plotted in GraphPad Prism using a variable slope 4-parameter fit.

The next experiment concerns LN229 MGMT+ MMR− cells. The protocol:
as §1, §2, §3

For a further experiment, the system named is LN229 MGMT− MMR+ cells. As for the experimental part: as §1, §2, §3
In a further experiment the test system is LN229 MGMT− MMR− cells. The protocol:
as §1, §2, §3

Regarding `CCNC(=O)c1ncn2c(=O)n(CCF)nnc12` [Compound I-2, N-ethyl-3-(2-fluoroethyl)-4-oxo-3H,4H-imidazo[4,3-d][1,2,3,5]tetrazine-8-carboxamide], the IC50 is more than 80 µM with LN229 MGMT+ MMR+ cells, more than 80 µM with LN229 MGMT+ MMR− cells, 10 to 20 µM in the experiment on LN229 MGMT− MMR+ cells and less than 10 µM in the experiment with LN229 MGMT− MMR− cells.
For `O=C(NCC(F)(F)F)c1ncn2c(=O)n(CCF)nnc12` [Compound I-3, 3-(2-fluoroethyl)-4-oxo-N-(2,2,2-trifluoroethyl)-3H,4H-imidazo[4,3-d][1,2,3,5]tetrazine-carboxamide], the IC50 was more than 80 µM in the experiment on LN229 MGMT+ MMR+ cells, more than 80 µM in the experiment with LN229 MGMT+ MMR− cells, less than 10 µM with LN229 MGMT− MMR+ cells and less than 10 µM with LN229 MGMT− MMR− cells.
In the case of `O=C(NC1CC1)c1ncn2c(=O)n(CCF)nnc12` [Compound I-4, N-cyclopropyl-3-(2-fluoroethyl)-4-oxo-3H,4H-imidazo[4,3-d][1,2,3,5]tetrazine-8-carboxamide], the IC50 was more than 80 µM with LN229 MGMT+ MMR+ cells, more than 80 µM in the experiment on LN229 MGMT+ MMR− cells, 10 to 20 µM with LN229 MGMT− MMR+ cells and less than 10 µM with LN229 MGMT− MMR− cells.
As to `O=C(NC1CCC1)c1ncn2c(=O)n(CCF)nnc12` [Compound I-5, N-cyclobutyl-3-(2-fluoroethyl)-4-oxo-3H,4H-imidazo[4,3-d][1,2,3,5]tetrazine-8-carboxamide], the IC50 in the experiment on LN229 MGMT+ MMR+ cells is more than 80 µM; in the experiment on LN229 MGMT+ MMR− cells it was more than 80 µM; in the experiment with LN229 MGMT− MMR+ cells it was 10 to 20 µM; in the experiment with LN229 MGMT− MMR− cells, less than 10 µM.
On to `CN(C)C(=O)c1ncn2c(=O)n(CCF)nnc12` [Compound I-6, 3-(2-fluoroethyl)-N,N-dimethyl-4-oxo-3H,4H-imidazo[4,3-d][1,2,3,5]tetrazine-8-carboxamide], for which the IC50 in the experiment with LN229 MGMT+ MMR+ cells is more than 80 µM; in the experiment on LN229 MGMT+ MMR− cells, more than 80 µM; with LN229 MGMT− MMR+ cells it was 20 to 50 µM; with LN229 MGMT− MMR− cells it was 10 to 20 µM.
With `O=C(Nc1nccs1)c1ncn2c(=O)n(CCF)nnc12` [Compound I-7, 3-(2-fluoroethyl)-4-oxo-N-(1,3-thiazol-2-yl)-3H,4H-imidazo[4,3-d][1,2,3,5]tetrazine-8-carboxamide], the IC50 in the experiment on LN229 MGMT+ MMR+ cells, with LN229 MGMT+ MMR− cells, in the experiment on LN229 MGMT− MMR+ cells and in the experiment with LN229 MGMT− MMR− cells was less than 10 µM in each case.
On to `O=C(Nc1ccccn1)c1ncn2c(=O)n(CCF)nnc12` [Compound I-8, 3-(2-fluoroethyl)-4-oxo-N-(pyridin-2-yl)-3H,4H-imidazo[4,3-d][1,2,3,5]tetrazine-8-carboxamide], for which the IC50 is more than 80 µM with LN229 MGMT+ MMR+ cells, more than 80 µM in the experiment with LN229 MGMT+ MMR− cells, 10 to 20 µM in the experiment with LN229 MGMT− MMR+ cells and less than 10 µM in the experiment with LN229 MGMT− MMR− cells.
On to `O=C(c1ncn2c(=O)n(CCF)nnc12)N1CCC1` [Compound I-9, 8-(azetidine-1-carbonyl)-3-(2-fluoroethyl)-3H,4H-imidazo[4,3-d][1,2,3,5]tetrazin-4-one], for which the IC50 in the experiment with LN229 MGMT+ MMR+ cells was more than 80 µM; in the experiment on LN229 MGMT+ MMR− cells it was more than 80 µM; in the experiment with LN229 MGMT− MMR+ cells, 10 to 20 µM; in the experiment with LN229 MGMT− MMR− cells, less than 10 µM.
`O=C(c1ncn2c(=O)n(CCF)nnc12)N1CCCC1` [Compound I-10, 3-(2-fluoroethyl)-8-(pyrrolidine-1-carbonyl)-3H,4H-imidazo[4,3-d][1,2,3,5]tetrazin-4-one]: the IC50 is more than 80 µM in the experiment with LN229 MGMT+ MMR+ cells, more than 80 µM with LN229 MGMT+ MMR− cells, 20 to 50 µM in the experiment on LN229 MGMT− MMR+ cells and less than 10 µM with LN229 MGMT− MMR− cells.
For the molecule `CN(C)CCNC(=O)c1ncn2c(=O)n(CCF)nnc12` [Compound I-12, N-[2-(dimethylamino)ethyl]-3-(2-fluoroethyl)-4-oxo-3H,4H-imidazo[4,3-d][1,2,3,5]tetrazine-8-carboxamide hydrochloride], the IC50 was more than 80 µM with LN229 MGMT+ MMR+ cells, more than 80 µM in the experiment on LN229 MGMT+ MMR− cells, less than 10 µM in the experiment with LN229 MGMT− MMR+ cells and less than 10 µM with LN229 MGMT− MMR− cells.
As to `CCCN(CCC)C(=O)c1ncn2c(=O)n(CCF)nnc12` [Compound I-13, 3-(2-fluoroethyl)-4-oxo-N,N-dipropyl-3H,4H-imidazo[4,3-d][1,2,3,5]tetrazine-8-carboxamide], the IC50 with LN229 MGMT+ MMR+ cells was in the range of 20 to 50 µM; in the experiment on LN229 MGMT+ MMR− cells, 20 to 50 µM; with LN229 MGMT− MMR+ cells, 20 to 50 µM; in the experiment with LN229 MGMT− MMR− cells it was 10 to 20 µM.
Turning to `CCN(C)C(=O)c1ncn2c(=O)n(CCF)nnc12` [Compound I-14, N-ethyl-3-(2-fluoroethyl)-N-methyl-4-oxo-3H,4H-imidazo[4,3-d][1,2,3,5]tetrazine-8-carboxamide], the IC50 in the experiment on LN229 MGMT+ MMR+ cells was more than 80 µM; in the experiment with LN229 MGMT+ MMR− cells it was more than 80 µM; with LN229 MGMT− MMR+ cells, 20 to 50 µM; with LN229 MGMT− MMR− cells, 10 to 20 µM.
For the molecule `CCN(CC)C(=O)c1ncn2c(=O)n(CCF)nnc12` [Compound I-15, N,N-diethyl-3-(2-fluoroethyl)-4-oxo-3H,4H-imidazo[4,3-d][1,2,3,5]tetrazine-8-carboxamide], the IC50 in the experiment with LN229 MGMT+ MMR+ cells was more than 80 µM; in the experiment on LN229 MGMT+ MMR− cells it was more than 80 µM; in the experiment on LN229 MGMT− MMR+ cells, 50 to 80 µM; in the experiment on LN229 MGMT− MMR− cells, 10 to 20 µM.
For `CCCNC(=O)c1ncn2c(=O)n(CCF)nnc12` [Compound I-16, 3-(2-fluoroethyl)-4-oxo-N-propyl-3H,4H-imidazo[4,3-d][1,2,3,5]tetrazine-8-carboxamide], the IC50 is more than 80 µM in the experiment with LN229 MGMT+ MMR+ cells, more than 80 µM with LN229 MGMT+ MMR− cells, 10 to 20 µM in the experiment with LN229 MGMT− MMR+ cells and less than 10 µM in the experiment with LN229 MGMT− MMR− cells.
On to `CCCN(C)C(=O)c1ncn2c(=O)n(CCF)nnc12` [Compound I-17, 3-(2-fluoroethyl)-N-methyl-4-oxo-N-propyl-3H,4H-imidazo[4,3-d][1,2,3,5]tetrazine-8-carboxamide], for which the IC50 in the experiment with LN229 MGMT+ MMR+ cells was more than 80 µM; in the experiment with LN229 MGMT+ MMR− cells, more than 80 µM; in the experiment with LN229 MGMT− MMR+ cells, more than 80 µM; with LN229 MGMT− MMR− cells, 20 to 50 µM.
Take `CCCN(CC)C(=O)c1ncn2c(=O)n(CCF)nnc12` [Compound I-18, N-ethyl-3-(2-fluoroethyl)-4-oxo-N-propyl-3H,4H-imidazo[4,3-d][1,2,3,5]tetrazine-8-carboxamide]: the IC50 with LN229 MGMT+ MMR+ cells was more than 80 µM; in the experiment with LN229 MGMT+ MMR− cells, more than 80 µM; with LN229 MGMT− MMR+ cells it was more than 80 µM; with LN229 MGMT− MMR− cells it was 20 to 50 µM.
Consider `[2H]C([2H])([2H])NC(=O)c1ncn2c(=O)n(CCF)nnc12` [Compound I-19, 3-(2-fluoroethyl)-N-(D3)methyl-4-oxo-3H,4H-imidazo[4,3-d][1,2,3,5]tetrazine-8-carboxamide], for which the concentration for half-maximal inhibition (IC50) in the experiment on LN229 MGMT+ MMR+ cells is more than 80 µM; in the experiment with LN229 MGMT+ MMR− cells, more than 80 µM; in the experiment on LN229 MGMT− MMR+ cells, 50 to 80 µM; with LN229 MGMT− MMR− cells, less than 10 µM.
On to `[2H]C([2H])([2H])N(Cc1ccccc1)C(=O)c1ncn2c(=O)n(CCF)nnc12` [Compound I-20, N-benzyl-3-(2-fluoroethyl)-N-(2H3)methyl-4-oxo-3H,4H-imidazo[4,3-][1,2,3,5]tetrazine-8-carboxamide], for which the IC50 in the experiment with LN229 MGMT+ MMR+ cells is more than 80 µM; in the experiment with LN229 MGMT+ MMR− cells, more than 80 µM; with LN229 MGMT− MMR+ cells it was 50 to 80 µM; in the experiment on LN229 MGMT− MMR− cells, less than 10 µM.
